Four compounds from patent publication US10596145B2, “Heterocyclic flavone derivatives, compositions, and methods related thereto” (Emory University, priority 2012, dated 2020) can be followed below.

Data set [1] can be described thus: In vivo metabolism studies of 7,8-DHF. An excerpt:
Among the modifications, glucuronidation and sulfation are thought to be responsible for the in vivo metabolism of the flavonoids. In addition, the O-methylated metabolites were detected in both the plasma and brain samples after oral administration. These modification pathways may explain the relatively short half-life of 7,8-DHF. Alteration of this labile group into the bioisosteric imidazole derivative escalates the PK profiles in compound o.

The nature of data set [2]: Metabolite investigation of the methylated metabolites of 7,8-DHF. On the procedure: In order to increase the hydrophobicity, EU-B-related compounds were prepared by keeping the urea functional group. In metabolite investigation of the methylated metabolites of 7,8-DHF, it was discovered that that 7-methoxy-8-hydroxy metabolite is active. A methyl group was added on the urea group.

The target in data set [3] is T1, TrkB (Mus musculus, UniProt P15209).
T1 construct: from tissue; host or cells: mouse brain (hippocampus, cortex), C57BL/6
Nature of the data set: TrkB phosphorylation in mouse brain after oral administration (immunoblotting, immunohistochemistry). The format is in vivo. The method, then:
One mg/kg of various indicated compounds were orally administrated into C57 BL/6J mice and TrkB phosphorylation and its downstream signaling cascades including Akt and MAPK in the hippocampus of mouse brain were analyzed by immunoblotting at 4 h. […] The downstream p-Akt and p-MAPK activity coupled to the TrkB activation patterns.
Time course assay with 4′-dimethylamino-7,8-imidazole flavone. One mg/kg of compound (i) and compound (m) were orally administrated into C57 BL/6J mice and TrkB phosphorylation and its downstream signaling cascades including Akt in mouse brain were analyzed by immunoblotting at various time points. TrkB activation by compound m peaked at 4 h, whereas the maximal TrkB activation by compound i in mouse brain occurred at 1-2 h. Arrows indicate the p-TrkB in mature glycosylated or unglycosylated forms (top panels). The downstream Akt activation pattern tightly correlated with the upstream TrkB activation.
(§1) Male C57BL/6 mice aged of two months were administrated orally with 4′-DMA-7,8-DHF derivatives at a single dose of 1 mg/kg for 4 h. The control mice were injected with saline. The mice were sacrificed and brains were homogenated and ultracentrafuged. The supernatant (40 μg) was employed for SDS-PAGE and immunoblotting analysis with indicated antibodies, respectively. Male C57BL/6 mice aged of two months were administrated orally with compound (i) or (m) at the dose of 5 mg/kg/day each and compound o or p at the dose of 2.5 mg/kg/day each for 21 days. BrdU (100 mg/kg) was i. p. injected two hours before the TrkB agonist treated animals were sacrificed and the hippocampal section lysates were analyzed by immunoblotting with p-TrkB and total TrkB antibodies, p-AKT ELISA.
Brain tissues were fixed in 4% paraformaldehyde overnight followed by paraffin embedding. Sections of 6 μm were cut. For immunohistochemical staining, brain sections were deparaffinized in xylene and rehydrated in graded alcohols. Endogenous peroxidase activity was blocked by 3% hydrogen peroxide for 5 min and all slides were boiled in 10 mM sodium citrate buffer (pH 6.0) for 10 min. Phosphorylated TrkB 816 and TrkB were detected using specific antibodies. Paraffin section were deparaffinized in xylene and rehydrated gradient ethanol solution. Samples were boiled in 10 mM sodium citrate buffer for 20 min for antigen retrieval purpose. Brain sections were incubated with anti-TrkB (BD Biosciences, San Jose, Calif.) 1:50, p-TrkB 1:300 dilution. Secondary antibody was applied using anti-rabbit-Alexa 594 (red), anti-mouse-fluorescein isothiocyanate (FITC) (green). DAPI (blue) was used for nuclear staining.
(In western blotting, separated proteins are transferred to a membrane and probed.)

Data set [4] deals with C57BL/6J mice. The data set is described as follows: Locomotor activity assay. It counts as in vivo, mouse. On the procedure: The above drug-treated mice were subjected locomotor activity at day 22. […] Data are presented as mean±SEM.
Locomotor activity was assessed using an automated system (San Diego Instruments, La Jolla, Calif., USA) with photobeams that recorded ambulations (consecutive beam breaks). Drug-treated mice were placed in the locomotor chambers, and their activity was recorded for 2 h with 30 min interval.

Data set [5] concerns C57BL/6J mice. The data set is described as follows: Forced swim test. It counts as in vivo, mouse. The method, then:
Male C57BL/6J mice (6 mice/group) were orally administrated by gavage with 5 mg/kg compound (m) or compound (i) and vehicle solvent saline for 21 days and subjected to a forced swim test (6 min, immobility recorded in the last 4 min). Data are presented as mean±SEM. (n=6, ***P<0.0001 vs vehicle, Student t-test).
Forced swim test. Male C57BL/6J mice (8 mice/group) were orally administrated by gavage with 2.5 mg/kg compound o or compound p and vehicle solvent saline for 21 days and subjected to a forced swim test (6 min, immobility recorded in the last 4 min). […] Data are presented as mean±SEM.
Adult male mice (2-3 months old) were randomly submitted to a forced swim test without a preswim. Test compounds were orally administrated by gavage for 21 days. The mice were allowed to adapt to the test room for 2 days. The mice were placed in a clear glass cylinder with a diameter of 16 cm, half-filled with clear water at 24° C.

In data set [6] the target is T2, TrkB (Rattus norvegicus, UniProt Q63604).
T2 construct: endogenous in cells; host or cells: primary cortical neurons from E17 rat embryos
The data set is described as follows: TrkB activation in primary cortical neurons (immunoblotting). It counts as cell-based. The note with it: 500 nM, 15 min. The method, then:
Primary cortical cultures from E17 rat embryos were treated with 500 nM of various synthetic flavone derivatives for 15 min. The cell lysates (20 μg) were analyzed by the immunoblotting.
Rat primary neurons were treated with 500 nM various indicated compounds from 15 min. The neuronal lysates ([…]) were analyzed with various antibodies.
500 nM of different synthetic compounds were added to DIV 7 neurons for 15 min. The cell lysates were analyzed by immunoblotting with indicated p-Akt 473 antibodies.
Replacing the 3′-dimethylamino group or 4′-morpholino group was tested for TrkB agonistic activity. To compare the TrkB activation by these compounds, primary cortical cultures were prepared and treated them with 500 nM of various compounds for 15 min and collected the cell lysates. […] The p-Akt ELISA analysis results were similar to the TrkB activation pattern (FIG. 2B, lower panel).

A further data set has as its target T3, TrkA (Mus musculus, UniProt Q3UFB7).
T3 construct: from tissue; host or cells: mouse brain lysates of chronically treated C57BL/6J mice
Nature of the data set: TrkA activation in mouse brain (anti-p-TrkA 794 immunoblotting). The note with it: 5 mg/kg/day oral, chronically treated mice. It counts as in vivo. On the procedure:
The brain lysates from above chronically treated mice were analyzed by immunoblotting with anti-p-TrkA 794 and p-TrkB 816.
as §1

The subject of the next data set is Akt. Nature of the data set: Downstream Akt activation in mouse brain (p-Akt immunoblotting, p-Akt 473 ELISA). It counts as in vivo. The method, then: PathScan Phospho-Akt1 (Ser473) Sandwich ELISA kit was purchased from Cell Signaling (Cat. #7160). 100 μl sample in sample diluent (supplied in the kit) was added to each well and incubated overnight at 4° C. After 4× wash with 200 ul wash buffer (supplied in the kit), 100 ul/well detection antibody was added and incubated for 1 hour at 37° C. After 4× wash, 100 μl of HRP-linked secondary antibody (supplied in the kit) was added and incubated for 30 minutes at 37° C. After a final wash, 100 μl of TMB substrate was added to each well and incubated for 10 minutes at 37° C. The reaction was stopped by adding 100 μl/well stop solution. Record the values of each well using microplate reader at 450 nm and 650 nm. The optical density was determined by the subtraction of the reading at 650 nm from the reading s at 450 nm.
as §1

A short description of data set [7]: Human liver microsomal stability assay. It counts as in vitro ADME. The note with it: human liver microsomes, 1 h incubation. The source says: (§2) To explore these compounds' in vitro ADMET profiles, we conducted numerous in vitro assays.
A further data set addresses T4, CYP1A2 (Homo sapiens, UniProt P05177).
T4 sequence (P05177 1-516): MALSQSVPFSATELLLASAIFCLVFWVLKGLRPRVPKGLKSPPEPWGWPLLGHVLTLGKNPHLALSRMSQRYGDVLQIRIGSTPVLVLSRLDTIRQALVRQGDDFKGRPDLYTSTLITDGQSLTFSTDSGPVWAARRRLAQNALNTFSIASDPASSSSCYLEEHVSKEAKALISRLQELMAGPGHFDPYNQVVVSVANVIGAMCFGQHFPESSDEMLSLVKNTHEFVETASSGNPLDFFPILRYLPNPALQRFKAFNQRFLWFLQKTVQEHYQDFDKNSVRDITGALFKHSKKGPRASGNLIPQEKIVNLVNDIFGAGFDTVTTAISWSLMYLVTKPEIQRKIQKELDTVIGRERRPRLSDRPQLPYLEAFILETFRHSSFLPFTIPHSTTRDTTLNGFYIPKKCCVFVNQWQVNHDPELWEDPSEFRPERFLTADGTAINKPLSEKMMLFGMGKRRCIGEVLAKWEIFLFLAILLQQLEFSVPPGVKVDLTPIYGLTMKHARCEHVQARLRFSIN
The data set is described as follows: CYP screen inhibition. The format is in vitro ADME. As to conditions: at 3 μM. On the procedure:
At 30 μM, the inhibition patterns contained similar trends. To test the possible cardiovascular toxicity, hERG inhibition triggered by compound o was examined.

For another data set, the system named is HepG2 cells. Nature of the data set: In vitro cytotoxicity assay with HepG2 cells. It counts as cell-based. The note with it: micronucleus and comet assays. On the procedure: HepG2 cells were treated with various concentrations of flavonoids for 24 h. The drug-treated cells were subjected to trypan blue exclusive assay. Data are presented as mean±SEM. (n=3, ***P<0.0001 vs vehicle).
In vitro and in vivo ADMET (ADME plus toxicity) of certain compounds were examined. […] Micronuclei formation is an important endpoint in genotoxicity study. […] Next, a Comet assay was performed with 100 μM drug-treated HepG2 cells. As a positive control, etoposide, a topoisomerase inhibitor, which causes DNA strand breaks was used.

A short description of data set [8]: Reactive metabolic screening assay. The format is in vitro ADME. The note with it: liver microsomal lysates.
Text: as §2

Entries after “also recorded” stand apart in the source; their conditions may differ.

T2 sequence (Q63604 32-821): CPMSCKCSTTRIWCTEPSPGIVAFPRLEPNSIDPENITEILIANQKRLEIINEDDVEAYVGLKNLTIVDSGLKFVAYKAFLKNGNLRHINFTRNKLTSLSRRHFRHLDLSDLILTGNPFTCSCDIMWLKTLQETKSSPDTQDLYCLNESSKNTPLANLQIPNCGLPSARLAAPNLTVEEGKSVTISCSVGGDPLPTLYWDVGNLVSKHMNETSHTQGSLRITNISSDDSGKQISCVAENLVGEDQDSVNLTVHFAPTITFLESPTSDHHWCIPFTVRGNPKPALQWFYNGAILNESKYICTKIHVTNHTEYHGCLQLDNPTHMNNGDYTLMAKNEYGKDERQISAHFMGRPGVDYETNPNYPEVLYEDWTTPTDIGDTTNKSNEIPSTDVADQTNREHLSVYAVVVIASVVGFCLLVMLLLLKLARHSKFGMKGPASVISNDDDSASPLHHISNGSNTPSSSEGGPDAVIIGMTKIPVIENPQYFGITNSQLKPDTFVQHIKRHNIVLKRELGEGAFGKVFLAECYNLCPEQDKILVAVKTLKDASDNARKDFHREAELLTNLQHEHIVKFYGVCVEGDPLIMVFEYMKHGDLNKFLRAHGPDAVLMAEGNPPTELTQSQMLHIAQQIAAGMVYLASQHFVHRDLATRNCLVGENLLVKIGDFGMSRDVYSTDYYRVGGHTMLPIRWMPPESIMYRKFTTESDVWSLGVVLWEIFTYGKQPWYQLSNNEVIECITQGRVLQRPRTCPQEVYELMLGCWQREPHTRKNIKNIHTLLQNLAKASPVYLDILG
T1 sequence (P15209 32-821): as the sequence (Q63604 32-821) above, with M3T, T9S, T10A, I32V, K63R, G84S, T153M, I185L, T394S, N770S counted along it
T3 sequence (Q3UFB7 34-799): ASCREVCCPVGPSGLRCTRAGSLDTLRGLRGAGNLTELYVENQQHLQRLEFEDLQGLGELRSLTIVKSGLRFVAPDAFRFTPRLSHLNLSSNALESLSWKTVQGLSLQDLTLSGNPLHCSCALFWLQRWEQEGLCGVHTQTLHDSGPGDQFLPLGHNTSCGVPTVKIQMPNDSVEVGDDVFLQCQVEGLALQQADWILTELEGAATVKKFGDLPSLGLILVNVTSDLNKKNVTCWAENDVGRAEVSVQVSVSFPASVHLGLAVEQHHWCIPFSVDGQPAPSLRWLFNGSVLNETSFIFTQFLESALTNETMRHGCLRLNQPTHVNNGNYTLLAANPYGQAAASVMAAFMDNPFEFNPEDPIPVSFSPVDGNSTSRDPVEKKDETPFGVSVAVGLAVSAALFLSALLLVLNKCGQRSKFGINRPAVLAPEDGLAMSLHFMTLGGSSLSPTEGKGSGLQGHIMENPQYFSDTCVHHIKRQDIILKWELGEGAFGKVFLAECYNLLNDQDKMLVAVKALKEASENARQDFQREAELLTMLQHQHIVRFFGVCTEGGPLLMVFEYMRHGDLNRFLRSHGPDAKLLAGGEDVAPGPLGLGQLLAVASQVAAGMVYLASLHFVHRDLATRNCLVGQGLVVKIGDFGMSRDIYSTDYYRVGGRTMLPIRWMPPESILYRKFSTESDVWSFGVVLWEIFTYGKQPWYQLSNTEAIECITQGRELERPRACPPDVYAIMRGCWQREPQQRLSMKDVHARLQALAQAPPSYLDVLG

Consider `O=c1cc(-c2ccccc2)oc2c(O)c(O)ccc12` [7,8-DHF, 7,8-dihdyroxyflavone], for which the “in vivo metabolic modifications” value in [1] is “subjected to oxidation, glucuronidation, sulfation and methylation”.

For `COc1ccc2c(=O)cc(-c3ccccc3)oc2c1O` [7-methoxy-8-hydroxy metabolite], the “activity of methylated metabolite” value in data set [2] is on record as “is active”.

For the compound `CN(C)c1ccc(-c2cc(=O)c3ccc4nc[nH]c4c3o2)cc1` [compound m, 8-(4-(dimethylamino)phenyl)chromeno[7,8-d]imidazol-6(1H)-one], the “TrkB activation in mouse brain” value on TrkB [3] (1 mg/kg oral, hippocampus, at 4 h) is recorded as “robustly activated TrkB; also recorded: strongest TrkB stimulatory effect”. At TrkB [3] (1 mg/kg oral, time course), the “time at which TrkB activation fades away” value is listed as 16 h and the “time of peak TrkB activation in mouse brain” value was found to be 4 h. Further, the “TrkB phosphorylation after chronic treatment” value on TrkB [3] (5 mg/kg/day oral, 3 weeks, cortex and hippocampus) is recorded as “escalated TrkB phosphorylation; also recorded: stronger effect than compound i”. In addition, the locomotor activity entry in the data set with C57BL/6J mice [4] (5 mg/kg oral, 21 days, tested at day 22) is “highly augmented the locomotor activity; also recorded: substantially augmented locomoter activity; also recorded: significantly increased the locomotor activity”. Also, the “immobility in forced swim test” value in the data set with C57BL/6J mice [5] (5 mg/kg oral once a day, 3 weeks) is reported as “decreased the immobility in FST; also recorded: significantly reduced the immobility; also recorded: more robust than that of compound i”. Further, the “TrkB activation (p-TrkB immunoblotting)” value on TrkB [6] is reported as “stronger effect in triggering TrkB activation than compound 4′-DMA-7,8-DHF”. Further, the “TrkB activation (p-TrkB immunoblotting)” value on TrkB [6] (listed as 4′-Dimethylamino-7,8-imidazole flavone) was “stronger TrkB stimulatory activity than compound a”. Moreover, the “TrkA activation in mouse brain” value on TrkA was “not TrkA”. Moreover, the “downstream p-Akt and p-MAPK signalings” value with Akt (1 mg/kg oral, at 4 h) is given as “strongly activated”. Also, the “p-Akt signal elevation compared to the control at peak” value in the data set on Akt (1 mg/kg oral, at 8 h) is on record as “about 250%”. In the data set on Akt (1 mg/kg oral, time course), the “time of peak p-Akt activation (p-Akt ELISA)” value was 8 h.

Regarding `O=c1cc(-c2ccc(N3CCCC3)cc2)oc2c1ccc1cc[nH]c12` [compound p, 2-(4-(pyrrolidin-1-yl)phenyl)pyrano[3,2-g]indol-4(9H)-one], the “remaining unchanged after incubation” value in data set [7] was found to be 1.2%. Besides, the “TrkB phosphorylation after chronic treatment (immunoblotting)” value at TrkB [3] (2.5 mg/kg/day oral, 21 days) is “markedly activated TrkB receptor; also recorded: evidently elevated TrkB phosphorylation”. Besides, the “TrkB phosphorylation in hippocampus (immunohistochemistry, anti-p-TrkB 816)” value at TrkB [3] (2.5 mg/kg/day oral, chronic) is on record as “elevated TrkB phosphorylation in hippocampus”. Besides, the locomotor activity entry in the data set with C57BL/6J mice [4] (2.5 mg/kg oral, 3 weeks) is reported as “neither compound o nor p altered the motion activity”. At CYP1A2, this compound registered a CYP1A2 inhibition of 37.4%. Further, in the data set on C57BL/6J mice [5] (2.5 mg/kg oral, 21 days), the “immobility in forced swim test” value is recorded as “but not compound p significantly decreased the immobility”. Besides, the “TrkB activation (p-TrkB immunoblotting)” value on TrkB [6] is listed as “higher activity than compound m”. Further, in the data set with HepG2 cells, the “cytotoxicity or genotoxicity (overall conclusion)” value is listed as “negligible cytotoxicity or genotoxicity”. Also, the “Akt activation (quantitative p-Akt ELISA)” value in the data set with Akt (2.5 mg/kg/day oral, 3 weeks) is “notably activated Akt”. In addition, in data set [8], the “reactive metabolite / adduct formation” value is reported as “formed numerous adducts”.
